In patent US4389486A, “Biologically pure culture” (Kowa Company, Ltd., priority 1977, dated 1983):

Legend:
[1] = Acute toxicity in mice; settings: mouse, in vivo
Excerpt: The acute toxicities of the KA-6606 I, II, III and IV of this invention determined by using mice are as follows.

[2] = Solubility; assay type: physicochemical
[3] = Stability to pH; assay type: physicochemical
[4] = in chloroform, ethyl acetate, diethyl ether, hexane and petroleum ether

COC1CC(N)C(OC2OC(C(C)N)CCC2N)C(O)C1N(C)C(=O)CNC(N)=O (centres unmarked) [KA-6606 III]
LD50 ([1]; iv.): > 200 mg/kg | LD50 ([1]; sc.): > 800 mg/kg | Solubility [2, 4]: insoluble | Solubility ([2]; in ethanol): slightly soluble | Solubility ([2]; in methanol): easily soluble | Solubility ([2]; in water): Very readily soluble | Stability ([3]; in basicity and strong acidity): gradually decomposed and inactivated | Stability ([3]; pH of 3 to 8): Stable

CNC1C(OC)CC(N)C(OC2OC(C(C)N)CCC2N)C1O (centres unmarked) [KA-6606 II]
LD50 ([1]; iv.): > 400 mg/kg | LD50 ([1]; sc.): > 1000 mg/kg | Solubility [2, 4]: insoluble | Solubility ([2]; in ethanol): slightly soluble | Solubility ([2]; in methanol): easily soluble | Solubility ([2]; in water): Very readily soluble | Stability ([3]; in strong acidity): gradually decomposed and inactivated | Stability ([3]; pH of at least 2): Stable

COC1CC(N)C(OC2OC(C(C)N)CCC2N)C(O)C1N(C)C(=O)CNC=O (centres unmarked) [KA-6606 IV]
LD50 ([1]; iv.): > 200 mg/kg | LD50 ([1]; sc.): > 800 mg/kg | Solubility [2, 4]: insoluble | Solubility ([2]; in ethanol): slightly soluble | Solubility ([2]; in methanol): easily soluble | Solubility ([2]; in water): Very readily soluble | Stability ([3]; in basicity and strong acidity): gradually decomposed and inactivated | Stability ([3]; pH of 3 to 8): Stable

COC1CC(N)C(OC2OC(C(C)N)CCC2N)C(O)C1N(C)C(=O)CN (centres unmarked) [KA-6606 I]
LD50 ([1]; iv.): 50 to 100 mg/kg | LD50 ([1]; sc.): 200 to 400 mg/kg | Solubility [2, 4]: Insoluble | Solubility ([2]; in ethanol): slightly soluble | Solubility ([2]; in methanol): Easily soluble | Solubility ([2]; in water): Very readily soluble | Stability ([3]; in basicity and strong acidity): gradually decomposed and inactivated | Stability ([3]; pH of 3 to 8): Stable
